# Assay results as given in US4379917A, “6"-(Substituted)-apramycin antibiotic derivatives and intermediates and starting materials therefor” (Eli Lilly and Company, priority 1981, dated 1983).
# Like-named read-outs stand apart in the source and are kept apart here.
# Assays:
# [1] = test system: Pseudomonas aeruginosa X239; test: Subcutaneous therapy of Pseudomonas aeruginosa X239 infections in mice; type: in vivo; details: X239, sc, 2 subcutaneous doses at 1 and 5 hours post infection, dose to protect 50 percent of test animals, read-out: Effective Dose (ED50)
# Method: Table III illustrates the effective dose (ED50, effective dose to protect 50 percent of the test animals) for representative compounds of this invention against an experimental bacterial infection in mice. | *mg/kg × 2 subcutaneous doses at 1 and 5 hours post infections The ED50 values were determined as described by W. E. Wick et al., Journal of Bacteriolocy, 81 [No. 2], 233-235 (1961).
# [2] = test system: Enterobacter aerogenes EB17; test: MIC by standard agar dilution test; type: cell-based; details: Klebsiella aerogenes, EB17; Table II; agar dilution; read-out: Minimum Inhibitory Concentration
# [3] = test system: Pseudomonas aeruginosa X528; test: MIC by standard agar dilution test; type: cell-based; details: X528, read-out: Minimum Inhibitory Concentration
# [4] = test system: Pseudomonas aeruginosa Ps15; test: MIC by standard agar dilution test; type: cell-based; details: PS15, read-out: Minimum Inhibitory Concentration
# [5] = test system: Pseudomonas aeruginosa X48; test: MIC by standard agar dilution test; type: cell-based; details: X48, read-out: Minimum Inhibitory Concentration
# [6] = test system: Bordetella bronchiseptica 16; test: MIC by standard agar dilution test; type: cell-based; details: Bordetella bronchiseptica, 16, read-out: Minimum Inhibitory Concentration
# [7] = test system: Enterobacter cloacae EN453; test: MIC by standard agar dilution test; type: cell-based; details: EN453, Table 1, agar dilution, read-out: Minimum Inhibitory Concentration
# [8] = test system: Pseudomonas aeruginosa Ps9; test: MIC by standard agar dilution test; type: cell-based; details: PS9, read-out: Minimum Inhibitory Concentration
# Proteus morganii PR15 = test: MIC by standard agar dilution test; type: cell-based; details: Morganella morganii, PR15, read-out: Minimum Inhibitory Concentration
# [9] = test system: Klebsiella pneumoniae KL14; test: MIC by standard agar dilution test; type: cell-based; details: KL14, Table II, agar dilution, read-out: Minimum Inhibitory Concentration
# Serratia marcescens SE2 = test: MIC by standard agar dilution test; type: cell-based; details: SE2, Table 1, agar dilution, read-out: Minimum Inhibitory Concentration
# Proteus morganii PR1 = test: MIC by standard agar dilution test; type: cell-based; details: Morganella morganii, PR1, read-out: Minimum Inhibitory Concentration
# [10] = test system: Pseudomonas solanacearum X185; test: microbe, parasite or virus in culture; type: cell-based; details: Ralstonia solanacearum, X185, read-out: Minimum Inhibitory Concentration
# Serratia marcescens SE3 = test: MIC by standard agar dilution test; type: cell-based
# Proteus inconstans PV25 = test: MIC by standard agar dilution test; type: cell-based; details: Providencia alcalifaciens, PV25; Table 1; agar dilution; read-out: Minimum Inhibitory Concentration
# Proteus morganii PR2 = test: MIC by standard agar dilution test; type: cell-based; details: Morganella morganii, PR2; Table 1; agar dilution; read-out: Minimum Inhibitory Concentration
# [11] = test system: Enterobacter cloacae EB24; test: MIC by standard agar dilution test; type: cell-based; details: EB24, Table 1, agar dilution, read-out: Minimum Inhibitory Concentration
# [12] = test system: Pseudomonas aeruginosa Ps25; test: MIC by standard agar dilution test; type: cell-based; details: PS25, read-out: Minimum Inhibitory Concentration
# [13] = test system: Pseudomonas aeruginosa SF-2; test: MIC by standard agar dilution test; type: cell-based; details: SF2, read-out: Minimum Inhibitory Concentration
# [14] = test system: Staphylococcus aureus 3055; test: MIC by standard agar dilution test; type: cell-based; details: Staphylococcus aureus, 3055, read-out: Minimum Inhibitory Concentration
# [15] = test system: Streptococcus faecalis X66; test: MIC by standard agar dilution test; type: cell-based; details: Enterococcus faecalis, X66, read-out: Minimum Inhibitory Concentration
# Escherichia coli EC14 = test: MIC by standard agar dilution test; type: cell-based; details: EC14, read-out: Minimum Inhibitory Concentration
# Salmonella typhimurium = test: MIC by standard agar dilution test; type: cell-based; details: Salmonella enterica, Table II, agar dilution, read-out: Minimum Inhibitory Concentration
# [16] = test system: Pseudomonas aeruginosa PI23; test: MIC by standard agar dilution test; type: cell-based; details: PI23, read-out: Minimum Inhibitory Concentration
# [17] = test system: Pseudomonas aeruginosa 4276; test: MIC by standard agar dilution test; type: cell-based; details: Pseudomonas aeruginosa, 4276, read-out: Minimum Inhibitory Concentration
# [18] = test system: Staphylococcus aureus 3074; test: MIC by standard agar dilution test; type: cell-based; details: Table II, read-out: Minimum Inhibitory Concentration
# From the text: (§1) The antibacterial activity of the antibiotic compounds of this invention is illustrated by the following in vitro and in vivo test data obtained with representative compounds. In Tables I and II the minimum inhibitory concentration (MIC) for representative compounds against a wide range of gram-positive and gram-negative bacteria is presented. The MIC values were obtained by the standard agar dilution test.
# Erwinia amylovora = test: MIC by standard agar dilution test; type: cell-based; details: Table II, read-out: Minimum Inhibitory Concentration
# From the text: as §1
# Salmonella typhosa SA12 = test: MIC by standard agar dilution test; type: cell-based; details: Salmonella enterica, read-out: Minimum Inhibitory Concentration
# [19] = test system: Klebsiella pneumoniae KL2; test: MIC by standard agar dilution test; type: cell-based; details: KL2, Table 1, agar dilution, read-out: Minimum Inhibitory Concentration
# [20] = test system: Enterobacter aerogenes EB6; test: MIC by standard agar dilution test; type: cell-based; details: Klebsiella aerogenes, EB6, read-out: Minimum Inhibitory Concentration
# Serratia marcescens X99 = test: MIC by standard agar dilution test; type: cell-based; details: X99, Table 1, agar dilution, read-out: Minimum Inhibitory Concentration
# [21] = test system: Pseudomonas aeruginosa X239; test: MIC by standard agar dilution test; type: cell-based; details: X239, read-out: Minimum Inhibitory Concentration, Table 1
# [22] = test system: Citrobacter freundii CF17; test: MIC by standard agar dilution test; type: cell-based; details: CF17, Table II, agar dilution, read-out: Minimum Inhibitory Concentration
compound,measurement,setting,value
"CN[C@@H]1[C@@H](O[C@H]2O[C@H](CN)[C@@H](N)[C@H](O)[C@H]2O)O[C@H]2C[C@@H](N)[C@@H](O[C@H]3[C@H](O)[C@@H](O)[C@H](N)C[C@@H]3N)O[C@@H]2[C@@H]1O [Test Compound 5, 6""-Amino-6""-Deoxyapramycin]",ED50,[1],15 mg/kg
same,MIC,[2],8 µg/mL
same,MIC,[3],64 µg/mL
same,MIC,[4],32 µg/mL
same,MIC,[5],32 µg/mL
same,MIC,[6],32 µg/mL
same,MIC,[7],8 µg/mL
same,MIC,[8],128 µg/mL
same,MIC,Proteus morganii PR15,32 µg/mL
same,MIC,[9],8 µg/mL
same,MIC,Serratia marcescens SE2,8 µg/mL
same,MIC,Proteus morganii PR1,16 µg/mL
same,MIC,[10],4 µg/mL
same,MIC,"Serratia marcescens SE3; SE3, Table 1, read-out: Minimum Inhibitory Concentration",8 µg/mL
same,MIC,"Serratia marcescens SE3; SE3, read-out: Minimum Inhibitory Concentration, Table II",16 µg/mL
same,MIC,Proteus inconstans PV25,8 µg/mL
same,MIC,Proteus morganii PR2,8 µg/mL
same,MIC,[11],8 µg/mL
same,MIC,[12],32 µg/mL
same,MIC,[13],32 µg/mL
same,MIC,[14],1 µg/mL
same,MIC,[15],32 µg/mL
same,MIC,Escherichia coli EC14,16 µg/mL
same,MIC,Salmonella typhimurium,8 µg/mL
same,MIC,[16],> 128 µg/mL
same,MIC,[17],64 µg/mL
same,MIC,[18],4 µg/mL
same,MIC,Erwinia amylovora,4 µg/mL
same,MIC,Salmonella typhosa SA12,16 µg/mL
same,MIC,[19],8 µg/mL
same,MIC,[20],16 µg/mL
same,MIC,Serratia marcescens X99,8 µg/mL
same,MIC,[21],32 µg/mL
same,MIC,[22],8 µg/mL
